The text below walks through data of patent US10426772B2, “Use of ergot alkaloids as an anthelmintic agent” (priority 2016, dated 2019).

Broadly, the EC50 is the concentration at which the effect is half-maximal. A word on the Emax: it is the maximal effect, on the per cent scale that the assay sets.

The target in the assay is Sm.5HTR (Schistosoma mansoni, UniProt A0A173FEI8). The experiment in a line: cell-based. The essentials:
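HEK293 cells stably co-expressing Sm.5HTR and the GloSensor-22F cAMP sensor, plated at 2.5×10^4/well the day before or assayed in suspension at 5000/well in 384-well plates. Assay buffer: HBSS, 20 mM HEPES pH 7.4, 0.1% BSA, 1 mg/mL D-luciferin. Equilibrated 1 h at room temperature, then IBMX 200 μM for 30 min before compound.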

Sm.5HTR, sequence (A0A173FEI8 entry or part of it): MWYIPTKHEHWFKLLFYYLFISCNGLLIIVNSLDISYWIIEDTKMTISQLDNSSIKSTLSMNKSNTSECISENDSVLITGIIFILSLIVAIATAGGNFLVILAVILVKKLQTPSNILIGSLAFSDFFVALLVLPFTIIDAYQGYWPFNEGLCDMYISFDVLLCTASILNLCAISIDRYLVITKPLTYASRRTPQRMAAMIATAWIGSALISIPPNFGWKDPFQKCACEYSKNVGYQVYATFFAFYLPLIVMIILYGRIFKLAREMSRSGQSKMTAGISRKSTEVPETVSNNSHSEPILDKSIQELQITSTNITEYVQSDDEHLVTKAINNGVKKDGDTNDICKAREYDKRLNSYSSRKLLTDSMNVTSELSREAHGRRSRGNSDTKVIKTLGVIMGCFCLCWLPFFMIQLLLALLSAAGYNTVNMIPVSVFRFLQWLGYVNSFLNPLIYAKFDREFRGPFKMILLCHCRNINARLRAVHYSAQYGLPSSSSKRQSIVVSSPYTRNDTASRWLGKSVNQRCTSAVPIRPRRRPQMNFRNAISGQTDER

Take `CN1C[C@H](C(=O)N[C@]2(C)O[C@@]3(O)[C@@H]4CCCN4C(=O)[C@H](Cc4ccccc4)N3C2=O)C=C2c3cccc4[nH]cc(c34)C[C@H]21` [ergotamine]: a half-maximal effect (EC50) was put at 43 ± 13 nM. Moreover, the Emax (HEK293, read-out: Sm.5HTR Emax) came to 95 ± 5%.
